# Where “and” joins values, the source holds several entries; their conditions need not be identical. Identical values can stand only once.
# Assays:
# [1] = system: patients with DE-associated NOP; experiment: Ocular Pain Assessment Survey (OPAS) in pilot study of topical cryosim-3; assay type: in vivo, human; conditions: C3 2 mg/mL eyelid wipe 4 times/day, mean ± SD, 15 patients; for OPAS Tearing (0-1): baseline 0.36 ± 0.29; for OPAS Redness (0-1): baseline 0.41 ± 0.32; for OPAS Chemical stimuli (0-1): baseline 0.47 ± 0.35; for OPAS Burning sensation (0-1): baseline 0.57 ± 0.37; for OPAS Mechanical stimuli (0-1): baseline 0.63 ± 0.29; for OPAS Sensitivity to light (0-1): baseline 0.76 ± 0.24; for OPAS Aggravating factors (total 0-2): baseline 1.11 ± 0.49; for OPAS Associated factors (total 0-4): baseline 2.09 ± 0.76; for OPAS General activity (walking, etc.) (0-10): baseline 4.00 ± 3.18; for OPAS Sleep (0-10): baseline 4.27 ± 3.81; for OPAS Enjoying life/relations with other people (0-10): baseline 5.07 ± 2.84; for OPAS Mood (0-10): baseline 5.40 ± 2.77; for OPAS Driving and/or watching TV (0-10): baseline 6.80 ± 2.31; for OPAS Non-eye pain (0-20): baseline 7.67 ± 6.22; for OPAS Reading and/or computer use (0-10): baseline 7.79 ± 1.76; for OPAS Eye pain intensity (0-60): baseline 30.60 ± 12.84; for OPAS Quality of life (total 0-60): baseline 33.53 ± 14.24
# Procedure: (§1) This prospective non-randomized pilot study was conducted in accordance with the tenets of the Declaration of Helsinki. Ethical approval was obtained from the Chonnam National University Hospital Institutional Review Board (CNUH-2018-274). Informed consent was obtained from all included patients. The sample size was calculated using the G*Power software (version 3.1.9.4; Heinrich-Heine University, Germany) with a level of α=0.05 and a power of 95% to detect a 2-point difference in pain scales. Accordingly, a total sample size of 13 patients was found sufficient.
# (§2) Patients with DE accompanied by NOP features, who underwent evaluation between January and December in 2018, were enrolled. DE was diagnosed based on OSDI score ≥13 and tear break-up time (TBUT) ≤7 s. The inclusion criteria were as follows: (1) chronic ocular pain which was unresponsive to conventional topical agents (i.e. lubricants, anti-inflammatories, secretagogues, etc.) for >3 months; (2) discordance between the painful DE symptoms and signs accompanying with specific descriptors, including burning or stinging; and (3) a Wong-Baker FACES Pain Rating Scale (WBFPS) score […].
# (§3) The patients were treated with add-on C3 while undergoing conventional topical treatment. C3 samples (2 mg/mL) were diluted in purified water, soaked in gauze, and packaged using automated equipment. The patients applied topical C3 by wiping the gauze on the closed eyelid margin, 4 times/day for 1 month (FIG. 1).
# The WBFPS was chosen to screen the pain severity in the patients with DE. The patients chose the face that best depicted the pain they were experiencing. At baseline, 1 week, and 1 month after treatment, the patients also completed the OPAS which is a validated questionnaire for neuropathic pain as previously described. The questions were divided into sections for analysis: questions 4-9, pertained to eye pain intensity (0 to 60); questions 10-11, pertained to non-eye pain (0 to 20); questions 13-19 (0-10, total score 0 to 60), assessed the QoL (reading and/or computer use, driving and/or watching TV, general activity, mood, sleep, and enjoying life/relations with other people); questions 20-21 (each score 0-1, total score 0-2), assessed aggravating factors (mechanical and chemical stimuli); and questions 22-25 (each score 0-1, total score 0-4), assessed associated factors (redness; burning; sensitivity to light; and tearing). The section on symptomatic relief of the OPAS was excluded, and only questions 4-25 were analyzed. The questions were divided into 5 sections as follows: eye pain intensity, non-eye pain, QoL, aggravating factors, and associated factors.
# (§4) Statistical analyses were conducted using PASW Statistics for Windows, Version 18.0 (SPSS Inc., Chicago, IL, USA). The normality of distribution was assessed using the Shapiro-Wilk test. The Wilcoxon signed-rank test and repeated-measures analysis of variance with Bonferroni's post-hoc test were used for comparing parameters before and after treatment. A P<0.05 was considered statistically significant.
# [2] = system: patients with DE-associated NOP; experiment: Clinical dry eye parameters (OSDI, TBUT, Schirmer test, corneal staining) in pilot study; assay type: in vivo, human; conditions: C3 2 mg/mL eyelid wipe 4 times/day, 1-month, mean ± SD
# Text: as §2, §3
# The OSDI questionnaire which ranged from 0 to 100 was used to quantify the vision-related QoL. TBUT (tear breakup time), the time interval between the last complete blink and the first appearance of disruption of the tear film, was measured thrice and the mean value was used for analysis. Corneal staining scores were assessed using the area-density index, by multiplying the area and density score. The Schirmer test score represented the length of wetting, and was measured using a calibrated sterile strip placed at the lateral canthus for 5 min under topical anesthesia (0.5% proparacaine). Only the score of the right eye was assessed.
# as §4
# [3] = system: patients with DE-associated NOP; experiment: Wong-Baker FACES Pain Rating Scale (WBFPS) in enrolled patients; assay type: in vivo, human; conditions: individual patients No. 1-15
# Text: as §2
# The patients were treated with add-on C3 while undergoing conventional topical treatment. […]
# The WBFPS was chosen to screen the pain severity in the patients with DE. […] The questions were divided into sections for analysis: questions 4-9, pertained to eye pain intensity (0 to 60); questions 10-11, pertained to non-eye pain (0 to 20); questions 13-19 (0-10, total score 0 to 60), assessed the QoL (reading and/or computer use, driving and/or watching TV, general activity, mood, sleep, and enjoying life/relations with other people); questions 20-21 (each score 0-1, total score 0-2), assessed aggravating factors (mechanical and chemical stimuli); and questions 22-25 (each score 0-1, total score 0-4), assessed associated factors (redness; burning; sensitivity to light; and tearing). […]
# [4] = system: patients with DE accompanying NOP features; experiment: Pilot study: discontinuation, safety and onset of effect; assay type: in vivo, human
# Procedure: as §1, §3
# This study enrolled 20 patients with DE accompanying NOP features. Five patients (25.0%) discontinued the treatment because of drug ineffectiveness or intolerance. The remaining 15 patients (75.0%) were included in the analysis. Their mean age was 59.5±13.0 years, and nine patients (60.0%) were women.
# patients with mild DE = conditions: cited from earlier work
# [5] = topical C3 in DE, previous study
smiles,measurement,setting,value
"CCCCCCCCCP(=O)(C(C)C)C(C)C [cryosim-3, 1-[Diisopropyl-phosphinoyl]-nonane]",OPAS Tearing (0-1),[1]; 1-month,0.21 ± 0.27
same,OPAS Redness (0-1),[1]; 1-month,0.39 ± 0.30
same,OPAS Chemical stimuli (0-1),[1]; 1-month,0.41 ± 0.32
same,OPAS Burning sensation (0-1),[1]; 1-month,0.29 ± 0.29
same,OPAS Mechanical stimuli (0-1),[1]; 1-month,0.47 ± 0.26
same,OPAS Sensitivity to light (0-1),[1]; 1-month,0.59 ± 0.28
same,OPAS Aggravating factors (total 0-2),[1]; 1-month,0.88 ± 0.57
same,OPAS Associated factors (total 0-4),[1]; 1-month,1.58 ± 0.93
same,"OPAS General activity (walking, etc.) (0-10)",[1]; 1-month,3.20 ± 2.86
same,OPAS Sleep (0-10),[1]; 1-month,2.73 ± 3.81
same,OPAS Enjoying life/relations with other people (0-10),[1]; 1-month,4.27 ± 3.03
same,OPAS Mood (0-10),[1]; 1-month,4.40 ± 2.47
same,OPAS Driving and/or watching TV (0-10),[1]; 1-month,5.60 ± 2.90
same,OPAS Non-eye pain (0-20),[1]; 1-month,5.47 ± 5.62
same,OPAS Reading and/or computer use (0-10),[1]; 1-month,6.93 ± 2.59
same,OPAS Eye pain intensity (0-60),[1]; 1-month,21.53 ± 10.84
same,OPAS Quality of life (total 0-60),[1]; 1-month,27.17 ± 16.06
same,OPAS Tearing (0-1),[1]; 1-week,0.17 ± 0.18
same,OPAS Redness (0-1),[1]; 1-week,0.41 ± 0.30
same,OPAS Chemical stimuli (0-1),[1]; 1-week,0.41 ± 0.35
same,OPAS Burning sensation (0-1),[1]; 1-week,0.40 ± 0.33
same,OPAS Mechanical stimuli (0-1),[1]; 1-week,0.47 ± 0.25
same,OPAS Sensitivity to light (0-1),[1]; 1-week,0.57 ± 0.26
same,OPAS Aggravating factors (total 0-2),[1]; 1-week,0.87 ± 0.56
same,OPAS Associated factors (total 0-4),[1]; 1-week,1.55 ± 0.85
same,"OPAS General activity (walking, etc.) (0-10)",[1]; 1-week,3.27 ± 2.71
same,OPAS Sleep (0-10),[1]; 1-week,2.93 ± 3.67
same,OPAS Enjoying life/relations with other people (0-10),[1]; 1-week,4.33 ± 2.97
same,OPAS Mood (0-10),[1]; 1-week,4.53 ± 2.50
same,OPAS Driving and/or watching TV (0-10),[1]; 1-week,5.27 ± 2.52
same,OPAS Non-eye pain (0-20),[1]; 1-week,6.73 ± 6.18
same,OPAS Reading and/or computer use (0-10),[1]; 1-week,7.14 ± 2.48
same,OPAS Eye pain intensity (0-60),[1]; 1-week,26.47 ± 11.45
same,OPAS Quality of life (total 0-60),[1]; 1-week,27.60 ± 15.49
same,Schirmer test score,"[2]; 5 min under topical anesthesia, baseline 7.07 ± 2.76",8.47 ± 2.80 mm
same,Corneal staining score (0-9),[2]; baseline 0.60 ± 0.91,0.13 ± 0.35
same,Tear break-up time,[2]; baseline 4.13 ± 0.83,4.00 ± 0.85 s
same,Ocular surface disease index,"[2]; scale 0 to 100, baseline 57.5 ± 13.8",40.2 ± 12.6
same,WBFPS score,[3]; 1 month of add-on C3 2 mg/mL eyelid wipe 4 times/day,2 and 5 (4×) and 6 (2×) and 3 and 4 (3×) and 1 (3×) and 7
same,WBFPS score,[3]; 1 week of add-on C3 2 mg/mL eyelid wipe 4 times/day,1 (4×) and 7 (3×) and 6 (5×) and 3 and 5 (2×)
same,patients who discontinued the treatment because of drug ineffectiveness or intolerance,[4]; five of 20 enrolled patients,25.0%
same,time to improvement of ocular pain after C3 treatment,[4]; patients unresponsive to conventional treatment (122.7 days),≤ 1 week
same,safety and effectiveness of topical application to the eyelid in relieving NOP,[4]; patients with DE,safe and effective
same,effect on basal tear secretion,patients with mild DE; [5],increasing basal tear secretion
same,effect on ocular discomfort,patients with mild DE; [5],alleviating ocular discomfort without any complications
same,duration of painless cooling sensation after wiping,patients with mild DE; wiping of C3,approximately 40 minutes

# Reference: patent publication US20240316078A1, “Treatment of Neuropathic Sensitization Disorders” (IVIEW Therapeutics, Inc., priority 2021, published 2024)
